Patent US20240254121A1, “ALKYLAMIDE SUBSTITUTED, ANNULATED IMIDAZOLES AND USE THEREOF AS INSECTICIDES” (Bayer Aktiengesellschaft, priority 2021, published 2024)

Columns and labels:
Assay type in all cases: in vivo
[1] = test system: fall armyworm larvae (Spodoptera frugiperda); experiment: Spodoptera frugiperda spray test; settings: 168 h, maize leaf sections, after 7 days
Outline: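 Maize leaf sections sprayed with compound in acetone/dimethylformamide, diluted in water with 1000 ppm alkylarylpolyglycol ether emulsifier. Dried sections infested with fall armyworm larvae. Mortality (%) scored after 7 days; 100% = all caterpillars killed.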

[2] = test system: brown planthopper (Nilaparvata lugens); experiment: Nilaparvata lugens spray test; settings: 96 h, rice plants, after 4 days
Protocol: Nilaparvata lugens—Spray Test • Solvent: 78.0 parts by weight of acetone • 1.5 parts by weight of dimethylformamide • Emulsifier: alkylarylpolyglycol ether
(§1) To produce a suitable preparation of active compound, 1 part by weight of active compound is mixed with the stated amount of solvents and is diluted with water, containing an emulsifier concentration of 1000 ppm, to the desired concentration. Further test concentrations are prepared by dilution with emulsifier containing water.
Rice plants (Oryza sativa) are sprayed with a preparation of the active ingredient of the desired concentration and the plants are infested with the brown planthopper (Nilaparvata lugens).
After 4 days mortality in % is determined. 100% means all planthoppers have been killed and 0% means none of the planthoppers have been killed.

[3] = test system: larvae of the banded cucumber beetle (Diabrotica balteata); experiment: Diabrotica balteata spray test; settings: 168 h, 100 g/ha (=32 μg/well), wheat seeds, after 7 days, read-out: efficacy (seedling growth)
Outline: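 Germinated wheat seedlings (5 per well, on agar) sprayed with compound in acetone/dimethylformamide diluted in water with 1000 ppm emulsifier, then infested with 10-20 Diabrotica balteata larvae. Efficacy (%) scored after 7 days: 100% = seedling growth as untreated, uninfested control; 0% = no seedlings grown.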

[4] = test system: green peach aphid (Myzus persicae); experiment: Myzus persicae spray test; settings: foliar, 120 h, 100 g/ha, Chinese cabbage leaf disks, after 5 days
Protocol: Myzus persicae—Spray Test • Solvent: 78.0 parts by weight acetone • 1.5 parts by weight dimethylformamide • Emulsifier: alkylarylpolyglycol ether
as §1
Chinese cabbage (Brassica pekinensis) leaf disks infected with all instars of the green peach aphid (Myzus persicae), are sprayed with a preparation of the active ingredient of the desired concentration.
After 5 days mortality in % is determined. 100% means all aphids have been killed and 0% means none of the aphids have been killed.

[5] = test system: adult flies Musca domestica strain WHO-N; experiment: Musca domestica test (MUSCDO surface treatment & contact assay); settings: 24 hours after contact, read-out: efficacy (mortality); for mortality at 4 mg/m2: surface concentration 4 mg/m^2, 30 minutes exposure; for mortality at 20 mg/m2: surface concentration 20 mg/m^2, 30 minutes exposure
Outline: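 Compound dissolved in acetone (2 mg/ml) with 2000 ppm rapeseed oil methyl ester and dried onto a glazed tile. Adult flies exposed to the treated surface for 30 min. Percent mortality scored 24 h after contact.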

[6] = test system: adult brown dog ticks (Rhipicephalus sanguineus); experiment: Rhipicephalus sanguineus in-vitro contact test with adult brown dog ticks; settings: 1 μg/cm^2 (=100 g/ha), after 48 hours
Protocol: Rhipicephalus sanguineus—In-Vitro Contact Tests with Adult Brown Dog Ticks
(§2) 9 mg compound is solved in 1 mL acetone and diluted with acetone to the desired concentration. 250 μL of the test solution is filled in 25 mL glass test tubes and homogeneously distributed on the inner walls by rotation and tilting on a shaking device (2 h at 30 rpm). With a compound concentration of 900 ppm, an inner surface of 44.7 cm^2 and a homogeneous distribution, a dose of 5 μg/cm^2 is achieved.
After the solvent has evaporated, each test tube is filled with 5-10 adult brown dog ticks (Rhipicephalus sanguineus), closed with a perforated lid and incubated in a lying position at room temperature and relative humidity. After 48 hours efficacy is determined. The ticks are patted on the ground of the tubes and are incubated on a heating plate at 45-50° C. for at most 5 minutes. Immotile or uncoordinated moving ticks, which are not able to escape the heat by climbing upwards, are marked as dead or moribund.
An efficacy of 100% means all ticks are dead or moribund; 0% means no ticks are dead or moribund.

[7] = test system: adult cat fleas (Ctenocephalides felis); experiment: Ctenocephalides felis in-vitro contact test, adult cat flea; settings: 1 μg/cm^2 (=100 g/ha), after 48 hours
Protocol: Ctenocephalides felis—In-Vitro Contact Tests Adult Cat Flea
as §2
After the solvent has evaporated, each test tube is filled with 5-10 adult cat fleas (Ctenocephalides felis), closed with a perforated lid and incubated in a lying position at room temperature and relative humidity.
After 48 hours efficacy is determined. The fleas are patted on the ground of the tubes and are incubated on a heating plate at 45-50° C. for at most 5 minutes. Immotile or uncoordinated moving fleas, which are not able to escape the heat by climbing upwards, are marked as dead or moribund.
An efficacy of 100% means all fleas are dead or moribund; 0% means no fleas are dead or moribund.

[8] = test system: adult mosquitoes Aedes aegypti strain MONHEIM; experiment: Aedes aegypti test (AEDSAE surface treatment & contact assay); settings: 24 hours after contact, read-out: efficacy (mortality); for mortality at 4 mg/m2: surface concentration 4 mg/m^2, 30 minutes exposure; for mortality at 20 mg/m2: surface concentration 20 mg/m^2, 30 minutes exposure
Outline: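 Test compound dissolved in acetone (2 mg/ml) with 2000 ppm rapeseed oil methyl ester, applied to glazed tile and dried. Adult Aedes aegypti MONHEIM placed on surface for 30 min exposure; % mortality scored 24 h after contact.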

[9] = test system: cattle tick larvae (Rhipicephalus microplus); experiment: Rhipicephalus (Boophilus) microplus in-vitro contact test, larval cattle tick (strain Parkhurst, resistant against synthetic pyrethroids); settings: 1 μg/cm^2 (=100 g/ha), after 48 hours, read-out: efficacy (larvae dead or moribund)
Outline: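 After drying, 20-50 larvae were held per tube at 27° C., 85% relative humidity for 48 h, and efficacy was scored as % dead or moribund.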

[10] = test system: adult mosquitoes Culex quinquefasciatus strain P00; experiment: Culex quinquefasciatus test (CULXFA surface treatment & contact assay); settings: surface concentration 20 mg/m^2, 30 minutes exposure, 24 hours after contact, read-out: efficacy (mortality)
Outline: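 Compound dissolved in acetone (2 mg/ml) with 2000 ppm RME and applied to glazed tile; after acetone evaporation, adults exposed to dried surface for 30 min. Percent mortality scored 24 h after contact.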

[11] = test system: adult Blattella germanica strain PAULINIA; experiment: whole plant or invertebrate; settings: read-out: efficacy (mortality)
Protocol: Blattella germanica Test (BLTTGE Surface Treatment & Contact Assay) • Solvent: Aceton+2000 ppm rapeseed oil methyl ester (RME)
In order to produce a sufficient, active ingredient containing solution it is necessary to solve the test compound in the solvent-mix (acetone at 2 mg/ml/RME 2000 ppm). This solution is pipetted onto a glazed tile and after evaporation of the acetone, adult animals of the species Blattella germanica strain PAULINIA are placed onto the dried surface. The exposure time is 30 minutes.
Mortality in percent (%) is determined 24 hours after contact of the insects to the treated surface. 100% mortality means that all tested insects are dead, whereas 0% means that no insect died.

[12] = test system: larvae of the southern green stink bug (Nezara viridula); experiment: Nezara viridula spray test; settings: 96 h, barley plants, after 4 days
Outline: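 Barley plants sprayed with compound in acetone/dimethylformamide, diluted in water with 1000 ppm alkylarylpolyglycol ether emulsifier, then infested with Nezara viridula larvae. Percent mortality read after 4 days (100% = all killed, 0% = none).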

C[C@H](NC(=O)c1cc(C(F)(F)F)cc(C(F)(F)F)c1)c1nc2cccnc2n1-c1ccc(C#N)cn1 [Example I-15]
80 to 100%: mortality at 4 mg/m2 [5] | mortality at 20 mg/m2 [5] | mortality at 4 mg/m2 [8] | mortality at 20 mg/m2 [8] | mortality at 20 mg/m2 [10]
90%: mortality at 500 g/ha [2] | mortality at 100 g/ha [4]
100%: mortality at 100 g/ha [1] | pest or weed control at 32 µg/disc, 100 g/ha [3] | pest or weed control at 1 µg/cm2, 100 g/ha [9]
80%: efficacy (ticks dead or moribund) [6] | efficacy (fleas dead or moribund) [7]

CC(NC(=O)c1cc(OC(F)(F)F)cc(OC(F)(F)F)c1)c1nc2cccnc2n1-c1ncccn1 (centres unmarked) [Example I-31]
90%: mortality at 100 g/ha [4]
100%: mortality at 100 g/ha [1] | pest or weed control at 32 µg/disc, 100 g/ha [3] | pest or weed control at 1 µg/cm2, 100 g/ha [9] | mortality at 500 g/ha [12]
80 to 100%: mortality at 20 mg/m2 [11] | mortality at 4 mg/m2 [5] | mortality at 20 mg/m2 [5] | mortality at 4 mg/m2 [8] | mortality at 20 mg/m2 [8] | mortality at 20 mg/m2 [10]
